pEC50: −log10 of the molar value.
How the values were obtained:
[1] = system: GPR65 KO HeLa cells + pLX empty vector; test: cAMP detection, GPR65 KO HeLa + empty pLX vector (null control); assay type: cell-based, human; settings: HeLa GPR65 KO + pLX, pH 7.1, 30 min, normalized to DMSO and 100 μM forskolin
Experimental: (§1) The Lance Ultra cAMP Kit (PerkinElmer, TRF0264) was used for cAMP detection, and included the following reagents: ULight anti-cAMP antibody, Eu-cAMP tracer, 7.5% BSA Stabilizer solution, and cAMP detection buffer. Stimulation buffer was prepared as described by the kit manufacturer as follows: Hanks buffered saline solution (HBSS, Life Technologies, 14025-126) containing 0.5 mM IBMX (3-isobutyl-1-methylxanthine, Sigma-Aldrich, I7018) and buffered with 1 M Hepes (15630-080). Stimulation buffer was then adjusted to pH 7.1 using 12 N HCl. HeLa cells were lifted using Versene and then suspended at 2.5 × 10^5 cells/ml in stimulation buffer. Cells were then plated at 20 μl per well (5000 cells per well) in white, opaque OptiPlate 384-well MicroPlates (PerkinElmer, 6007299) using a Thermo Fisher Scientific Combi liquid dispenser. Compounds, stored at 5 mM in DMSO for the primary screen, or in a range of concentrations from 39 μM to 20 mM for dose curves, were transferred by the CyBio CyBi-Well Vario pin transfer tool with 100-nl pins (V&P FP1NS50H, 50-nl slot, 0.457-mm diameter, hydrophobic coated), into each assay well, 100 nl per well for a final assay concentration of 25 μM for the primary screen, or 195 nM to 100 μM for dose curves. Assay plates were then incubated at RT for 30 min. Eu-cAMP tracer was diluted 1:33 into detection buffer and the final solution then distributed into assay wells, 5 μl per well. ULight anti-cAMP antibody was diluted 1:100 into detection buffer, then distributed into assay wells, also 5 μl per well. Assay plates were then incubated at RT in the dark for 1 hour. Eu-cAMP tracer and Förster resonance energy transfer (FRET) emissions were then read using a PerkinElmer EnVision Multimode plate reader (ENVISION21040010), exciting each well at 320 nm [UV2 (TRF) 320 filter] and reading emissions at 615 nm (Europium 615 filter) and 665 nm (APC665 filter). Data analysis was performed using Genedata Screener and GraphPad Prism.
(§2) HeLa KO cell lines were generated using the px330 plasmid CRISPR system as previously described ([18]). Briefly, HeLa cells were transfected with a Cas9 vector containing a gene-specific single-guide RNA to target the GPR65 coding exon. Forty-eight to 72 hours after transfection, single clones were obtained through limiting dilution and then sequenced to validate the KO. Reconstituted cell lines were produced by transducing KO cells with empty lentivirus or lentivirus containing hGPR65 or mGPR65. After 48 hours, cells were treated with puromycin (3 μg/ml; InvivoGen, ant-pr-1) and resistant cells were used in experiments.

hGPR65 = molecular target: T1, hGPR65 (Homo sapiens, UniProt Q8IYL9); test: cAMP detection (Lance Ultra), GPR65 KO HeLa reconstituted with hGPR65; 21K screen dose confirmation; assay type: cell-based; settings: HeLa GPR65 KO + hGPR65, pH 7.1, 30 min, normalized to DMSO and 100 μM forskolin; read-out: WT EC50
T1 construct: expressed in transfected cells; host or cells: HeLa (ATCC CCL-2), lentiviral transduction, pLX317
T1 sequence (Q8IYL9 whole entry): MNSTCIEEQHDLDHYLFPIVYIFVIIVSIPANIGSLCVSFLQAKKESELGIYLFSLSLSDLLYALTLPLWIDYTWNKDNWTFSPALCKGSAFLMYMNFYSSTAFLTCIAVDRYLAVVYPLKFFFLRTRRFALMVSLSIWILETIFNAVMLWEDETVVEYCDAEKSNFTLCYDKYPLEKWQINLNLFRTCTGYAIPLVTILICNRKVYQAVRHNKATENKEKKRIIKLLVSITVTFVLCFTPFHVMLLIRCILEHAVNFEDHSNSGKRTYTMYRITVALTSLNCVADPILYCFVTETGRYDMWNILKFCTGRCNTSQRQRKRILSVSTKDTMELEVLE
Experimental: as §1, §2

## CC(Sc1nc2ncnc(N)c2[nH]1)C(=O)O (centres unmarked) [BRD-A18106607-001-02-5]
[1]
  pEC50: 5.19
hGPR65
  pEC50: 5.22

## Cc1cnccc1CN1CC(C(=O)O)CC1=O (centres unmarked) [BRD-A19095755-001-02-9]
[1]
  pEC50: 4.77
hGPR65
  pEC50: 4.70

## CCCCC(CC)C(=O)Oc1ccc2c(c1)oc(=O)c1ccccc12 (centres unmarked) [BRD-A19872532-001-02-1]
[1]
  pEC50: < 4.00
hGPR65
  pEC50: < 4.00

## CCN1CCCc2cc(-c3cncn3C(C)CN3CCOCC3)ccc21 (centres unmarked) [BRD-A40378740-001-02-0]
[1]
  pEC50: < 4.00
hGPR65
  pEC50: < 4.00

## CC(=O)N1CCCC(CCCc2ccncc2)(C(=O)O)C1 (centres unmarked) [BRD-A44875014-001-02-0]
[1]
  pEC50: 4.83
hGPR65
  pEC50: 4.88

## CN1CCN(c2ccnc3ccccc23)CC1C(=O)O (centres unmarked) [BRD-A45312230-001-02-1]
[1]
  pEC50: 5.89
hGPR65
  pEC50: 5.92

## CC(NC(=O)c1ccc2ncccc2c1)c1cc(=O)[nH]c(N2CCN(C)CC2)n1 (centres unmarked) [BRD-A49179268-001-02-5]
[1]
  pEC50: 4.17
hGPR65
  pEC50: 4.08

## Clc1ccc2c(N3CCCC4(CCNC4)C3)ccnc2c1 (centres unmarked) [BRD-A50085437-001-02-6]
[1]
  pEC50: 4.47
hGPR65
  pEC50: 4.58

## Cc1cc(C)n(CC(O)CN(Cc2ccco2)Cc2cccc3ncccc23)n1 (centres unmarked) [BRD-A63170499-001-02-6]
[1]
  pEC50: < 4.00
hGPR65
  pEC50: < 4.00

## O=S1(=O)CCC(Cn2cc(-c3ccnc4ccccc34)nn2)C1 (centres unmarked) [BRD-A69528226-001-02-9]
[1]
  pEC50: 4.77
hGPR65
  pEC50: 4.70

## Cc1nc(C2CCCNC2)cc(N(C)Cc2cccc3cnccc23)n1 (centres unmarked) [BRD-A78843635-001-02-6]
[1]
  pEC50: 4.02
hGPR65
  pEC50: < 4.00

## O=C1CC(N2CCN(c3ncccn3)CC2)C(=O)N1c1ccccc1 (centres unmarked) [BRD-A87117975-001-02-2]
[1]
  pEC50: 4.26
hGPR65
  pEC50: 4.15

## CN(C)CCOC(=O)C1CC2=C(CCCC2(C)C)CC1C(=O)O (centres unmarked) [BRD-A91973386-001-02-5]
[1]
  pEC50: 4.15
hGPR65
  pEC50: 4.22

## COc1ccc(S(=O)(=O)N2C[C@@H](N)[C@H](c3cn(C)c4cnccc34)C2)cc1 [BRD-K00063734-001-02-2]
[1]
  pEC50: 4.20
hGPR65
  pEC50: 4.13

## O=C(O)CCSCCc1ccncc1 [BRD-K06534048-001-02-7]
[1]
  pEC50: 4.53
hGPR65
  pEC50: 4.42

## CS(=O)(=O)N1CCN(c2ccnc3cc(Cl)ccc23)CC1 [BRD-K06900104-001-09-6]
[1]
  pEC50: 4.64
hGPR65
  pEC50: 4.56

## Cc1cnc(N)c(C(=O)C2CCN(C(=O)c3cnc(C)nc3C)CC2)c1 [BRD-K07158347-001-02-2]
[1]
  pEC50: 4.77
hGPR65
  pEC50: 4.74

## Nc1cccnc1Sc1nc2cccnc2s1 [BRD-K10062067-001-02-9]
[1]
  pEC50: < 4.00
hGPR65
  pEC50: < 4.00

## Nc1ccc2c(C(F)(F)F)cc(=O)oc2c1 [BRD-K20841137-001-08-7]
[1]
  pEC50: < 4.00
hGPR65
  pEC50: < 4.00

## COc1cc(Br)c(-c2cc3ccccc3oc2=O)cc1OC [BRD-K22294093-001-02-2]
[1]
  pEC50: > 5.00
hGPR65
  pEC50: > 5.00

## CCN1C[C@@H](COC)[C@]2(CCN(C(=O)N3CCCC3)C2)C1 [BRD-K23021624-001-01-8]
[1]
  pEC50: < 4.00
hGPR65
  pEC50: < 4.00

## COC(=O)Nc1nc2ccc(-c3n[nH]c(=O)c4ccccc34)cc2[nH]1 [BRD-K25806464-001-09-6]
[1]
  pEC50: > 5.00
hGPR65
  pEC50: > 5.00

## O=C(c1ccc2nc[nH]c2c1)N1CCC(CCOc2ccccc2)(C(=O)O)CC1 [BRD-K25972060-001-03-7]
[1]
  pEC50: 5.31
hGPR65
  pEC50: 5.34

## O=c1c(-c2ccccc2)nnc2sc(-c3ccc4c(c3)OCCO4)nn12 [BRD-K26812102-001-02-6]
[1]
  pEC50: < 4.00
hGPR65
  pEC50: < 4.00

## O=C(c1ccco1)N1CCN(c2ccnc3cc(Cl)ccc23)CC1 [BRD-K27679143-001-08-6]
[1]
  pEC50: 4.81
hGPR65
  pEC50: 4.74

## Cn1ccc2c(-c3ccc(C(=O)N4CCCC4)cn3)ccnc21 [BRD-K29607656-001-02-7]
[1]
  pEC50: < 4.00
hGPR65
  pEC50: < 4.00

## Cn1ccc2c(-c3cccc(=O)[nH]3)ccnc21 [BRD-K33217544-001-03-3]
[1]
  pEC50: 4.05
hGPR65
  pEC50: 4.04

## O=C(CN1CCC(c2ccncc2)CC1)N1CCOCC1 [BRD-K33295678-001-02-9]
[1]
  pEC50: < 4.00
hGPR65
  pEC50: < 4.00

## CCCOc1cc2c(cc1CN(C)Cc1cc(=O)[nH]c3ccccc13)OCO2 [BRD-K37392365-001-02-8]
[1]
  pEC50: < 4.00
hGPR65
  pEC50: < 4.00

## N#Cc1cnc(SCc2cc(=O)[nH]c3ccccc23)nc1N [BRD-K39252032-001-02-5]
[1]
  pEC50: 4.17
hGPR65
  pEC50: < 4.00

## O=C(CSc1ncnc2sc3c(c12)CCCC3)Nc1nccs1 [BRD-K40136431-001-02-4]
[1]
  pEC50: < 4.00

## Cn1c(=O)n(C)c2cc(NC(=O)CSc3ncc(C#N)c(N)n3)ccc21 [BRD-K40764399-001-02-3]
[1]
  pEC50: < 4.00
hGPR65
  pEC50: < 4.00

## O=C(O)CCCc1nc(-c2cccnc2)no1 [BRD-K41365409-001-02-6]
[1]
  pEC50: 4.45
hGPR65
  pEC50: 4.38

## COc1ccc(NC(=O)CSc2nc3ccc(C)cc3cc2C#N)cc1 [BRD-K45250069-001-02-7]
[1]
  pEC50: < 4.00
hGPR65
  pEC50: < 4.00

## O=C(O)C1CCN(c2ncnc3ccccc23)CC1 [BRD-K45393828-001-02-7]
[1]
  pEC50: 4.40
hGPR65
  pEC50: 4.26

## COc1ccc(Nc2nnc(-c3ccc(C(N)=O)cc3)c3ccccc23)cc1 [BRD-K46612369-001-11-5]
[1]
  pEC50: < 4.00
hGPR65
  pEC50: < 4.00

## c1ccc(-c2cc3ncnc(N4CCSCC4)c3s2)cc1 [BRD-K51028315-001-02-0]
[1]
  pEC50: < 4.00
hGPR65
  pEC50: < 4.00

## CCc1cc(CC)c2sc3ccccc3c(=O)c2c1 [BRD-K51520769-001-02-7]
[1]
  pEC50: < 4.00
hGPR65
  pEC50: < 4.00

## O=C(O)c1nccnc1C(=O)N1CCCN(c2c(Cl)cncc2Cl)CC1 [BRD-K53955368-001-02-8]
[1]
  pEC50: < 4.00
hGPR65
  pEC50: < 4.00

## NC(=O)C1CCN(C(=O)CN2CCN(c3ccnc4cc(Cl)ccc34)CC2)CC1 [BRD-K56344229-001-02-1]
[1]
  pEC50: 4.90
hGPR65
  pEC50: 4.81

## COC(=O)c1cc2c(s1)-c1cc(F)ccc1OC2 [BRD-K56384677-001-09-9]
[1]
  pEC50: 4.03
hGPR65
  pEC50: 4.05

## CN(Cc1ccc2ncccc2c1)C(=O)[C@@H]1C[C@H](N)CN1C [BRD-K56675411-001-02-6]
[1]
  pEC50: 4.24
hGPR65
  pEC50: 4.15

## Cc1nccn1-c1ccc(CN(Cc2cccnc2)C2CC(C)(C)NC(C)(C)C2)cc1 [BRD-K56921026-001-02-1]
[1]
  pEC50: 4.29
hGPR65
  pEC50: 4.24

## O=C(CN1CCC(c2ccncc2)CC1)NCc1cccs1 [BRD-K63268990-001-02-0]
[1]
  pEC50: < 4.00
hGPR65
  pEC50: < 4.00

## O=c1[nH]c2ccccc2c2oc(-c3ccccc3)nc12 [BRD-K66733191-001-02-7]
[1]
  pEC50: 4.15
hGPR65
  pEC50: 4.04

## COc1ccc(C(=O)c2cn(CC(=O)Nc3nc4c(s3)CCCC4)c3cnccc23)cc1 [BRD-K74442183-001-02-5]
[1]
  pEC50: > 4.52
hGPR65
  pEC50: > 4.52

## CC(C)CCn1c(Sc2nc3ccccc3s2)nc2c1c(=O)[nH]c(=O)n2C [BRD-K74743357-001-08-3]
[1]
  pEC50: 4.11

## O=C(Nc1cccc2nsnc12)c1sc2ccccc2c1Cl [BRD-K76966415-001-02-1]
[1]
  pEC50: > 4.52
hGPR65
  pEC50: > 4.52

## O=C(Cn1nnc(-c2ccccc2NC(=O)c2ccccc2)n1)NC1CCCCC1 [BRD-K79778627-001-02-1]
[1]
  pEC50: 4.13
hGPR65
  pEC50: < 4.00

## Cc1ccc(C(=O)Cn2c(=O)n(C(C)C)c3nc(-c4ccc(F)cc4)nc(C(N)=O)c32)cc1 [BRD-K81805280-001-02-6]
[1]
  pEC50: < 4.00
hGPR65
  pEC50: < 4.00

## Cc1cc2c(cc1-c1cncn1CCN(C)C1CCCC1)n(C)c(=O)n2C [BRD-K91081402-001-02-5]
[1]
  pEC50: < 4.00
hGPR65
  pEC50: < 4.00

## O=C(c1cc2c([nH]c1=O)CCC2)N1CCN(c2ccnc3cc(Cl)ccc23)CC1 [BRD-K91175373-001-02-0]
[1]
  pEC50: 4.77
hGPR65
  pEC50: 4.70

## Cn1cc(C(=O)c2ccc(F)cc2)c2ccnc(Cl)c21 [BRD-K96864761-001-02-4]
[1]
  pEC50: 4.35
hGPR65
  pEC50: 4.32
